Experimental data as given in article PMC4862498, “PI4 Kinase Is a Prophylactic but Not Radical Curative Target in Plasmodium vivax-Type Malaria Parasites” (Antimicrobial Agents and Chemotherapy, 2016).
Values joined by “and” are separate entries in the source; they are usually repeats but may differ in a detail not shown here. Equal entries are not always repeated. “Also recorded” adds a separate entry of the source.

Columns and labels:
[1] = test system: P. cynomolgi sporozoite-infected rhesus macaques (hypnozoites, relapse); assay: Radical cure in P. cynomolgi sporozoite-infected rhesus macaques; type: in vivo, Plasmodium cynomolgi; settings: group PQ-RC
Method: Sporozoites were harvested from P. cynomolgi-infected mosquitoes, washed with phosphate-buffered saline (PBS), and diluted to 100,000 sporozoites (spz)/ml in PBS. One-milliliter aliquots of sporozoites were prepared and injected into monkeys via intravenous (i.v.) injection.
(§1) Monkeys were treated according to the schedule shown in Table 1 (stratification of treatment groups is given in the supplemental material). During treatment, monkeys were weighed daily and received the compound via gavage, followed by gastric feeding (weight change during treatment is shown in Table S6 in the supplemental material). Monkeys in the prophylaxis groups (groups 691-proph and 599-proph) were treated ∼20 min after the i.v. sporozoite injection. The other monkeys were treated when all the monkeys in the experiment (except those in the prophylaxis group) were blood-stage patent (at day 11 p.i.). To kill the blood-stage parasites, all monkeys received a 5-day treatment of 7.5 mg/kg of body weight of chloroquine (CQ) (intramuscular [i.m.] injection), during compound dosing. KDU691 was formulated in 0.5% methylcellulose and 0.5% Tween 80 in water. LMV599 was formulated as a solid dispersion in a solution containing 5.6% (wt/wt) Tween 80–44.4% hydroxypropyl methylcellulose (HPMC) E3–38.9% Soluplus–11.1% vitamin E D-alphatocopheryl polyethylene glycol 1000 succinate (TPGS).
Parasitemia was closely monitored by thin-film analysis. Animals were trained to present for thigh pricks, which was followed by a reward. Thin-film slides were stained with 20% Giemsa stain, and at least 50 fields (±20,000 erythrocytes [RBCs]) were analyzed with a bright-field microscope (×1,200 magnification). As soon as all monkeys other than the prophylactic treatment groups were blood-stage positive, treatment was started as indicated above (Table 1). After the last day of compound dosing, the absence of blood-stage parasites was confirmed by thin smears. From day 23 p.i., monkeys were monitored daily for relapses. The KDU691 radical-cure (group 691-RC) treatment and control groups were monitored until the first relapse. The LMV599 control (group 599-C), radical-cure (group 599-RC), and PQ radical-cure (group PQ-RC) treatment groups were monitored until the second relapse or until day 100 p.i. (whichever came first). At the end of the study, monkeys that had relapsed received a 14-day primaquine treatment, with a final check 2 weeks after the last primaquine dose.
P. cynomolgi sporozoite production
A monkey was infected with […] P. cynomolgi M strain blood stage parasites, thawed from a first passage stock (i.e. blood stage parasites from a monkey infected with P. cynomolgi M strain sporozoites). For each batch of sporozoites needed, a single monkey was infected with P. cynomolgi blood stage parasites.
At day 11 and 12 post infection 9 mL infected blood was collected into a Lithium-heparinised tube. The blood was kept at 38°C and fed approximately 500 three to five days old female Anopheles stephensi mosquitoes Sind-Kasur strain Nijmegen (Nijmegen University Medical Centre St Radboud, Department of Medical Microbiology) using a glass feeder system as described by Ponnudurai et al.. After the second bleed, the monkey was cured by three daily intramuscular injections of 7.5 mg/kg chloroquine, monitored for parasite clearance 24 days after chloroquine treatment and returned to colony.
Mosquitoes were kept in climate chambers at 25 °C and 80% humidity and were fed 5% D -glucose on cotton pads daily. Seven days after feeding on the infected rhesus blood, oocyst numbers were determined in midguts of ten individuals, using 1% mercurochrome stain. Mosquitoes were given a second (uninfected) blood meal immediately afterwards to promote sporozoite maturation and invasion of the salivary glands. Sporozoites were isolated from the P. cynomolgi infected mosquitoes around day16 after the infected blood meal.
In vivo monkey infection and treatment procedures […]

[2] = Clinical chemistry, hematology, weight and clinical observation of treated monkeys; type: in vivo, rhesus macaques (Macaca mulatta)
Method: as §1
Blood samples were collected for clinical evaluation and pharmacokinetic (PK) analysis (see Table S2 in the supplemental material).
When the first relapse was observed, monkeys of the KDU691 experiment were radically cured with primaquine (PQ)/CQ (oral administration of 1.8 mg/kg PQ for 14 days together with i.m. administration of 7.5 mg/kg CQ for the first five days of PQ treatment) to cure both blood stage and liver stage parasites, […]
The monkeys of the LMV599/PQ experiment were cured with a five day CQ treatment (7.5 mg/kg, i.m. administration) at the first relapse and were monitored until the second relapse after which they were cured with CQ (7.5 mg/kg, intramuscular (i.m.) for five days) plus PQ (1.8 mg/kg for 14 days).
Table S2: PK and clinical blood sampling schedule in monkeys.
Groups are named 691 for KDU691 and 599 for LMV599 treatment groups, followed by -C for control group (no compound), -proph for prophylactic treatment (treated immediately after infection), and -RC for radical cure treatment (treated when blood stage positive). […]
the face and chest areas were very yellow. Therefore the 691-RC group (treated from d11 to d15 pi) was monitored by daily clinical chemistry analysis during dosing to be compared with untreated 691-C. […]
sampling of the single dose prophylaxis group at day 0, 1, 7 and 100. The lack of aberrant clinical […]
as radical cure compound, during which also clinical sampling was performed daily. a: only clinical chemistry samples were taken. *: t = 24 sample was taken only on the 1st day of dosing.
Group name Clin. chem PK sampling PK time points
Hematology (h post dosing)
691-proph 1st and 5th day of dosing t = 0, 1, 4, 6 and 24*
691-RC Dailya 1st and 5th day of dosing t = 0, 1, 4, 6 and 24* […]
599-RC Daily 1st and 4th day of dosing t = 0, 1, 2, 4 and 24
Clinical chemistry and hematology
For the clinical analysis serum from 1 mL of clotted blood was analysed using the Cobas Integra 400 plus fully automated chemistry analyser. The following clinical parameters were determined: Alkaline phosphatase; Alanine Aminotransferase; Albumin: Aspartate aminotransfeasr; Bilirubin; Calcium; Cholesterol; Creatine kinase; Creatinine; C-reactive protein: Iron; Phosphate; Gamma-glutamyl transpeptidase; Glucose; Hemoglobin; Potassium; Lactate dehydrogenase; Sodium; Total protein; Urea Haematological parameters were determined from 1 mL EDTA-blood with a Sysmex XT-2000iV automated system. The following hematological parameters were determined: Basophilic granulocytes; Eosinophilic granulocytes; Erythrocytes; Hematocrit; Leucocytes; Leucocyte differentiation; Lymphocytes; Mean corpusculair hemoglobin; Mean corpusculair hemoglobin concentration; Mean corpusculair volume; Neutrophilic granulocytes; Red cell distribution width; Thrombocytes […]
Liver tissue samples were excised, dipped in PBS, gently blotted with absorbent paper, dried, weighed and stored at -20 °C until further analysis. […]

[3] = test system: P. cynomolgi hypnozoites in primary rhesus hepatocytes; parameters: method as in PMID 24366744; settings: P. cynomolgi in vitro liver-stage assay; read-out: IC50 against hypnozoites; cited from earlier work
[4] = test system: P. cynomolgi developing EEFs (liver schizonts) in primary rhesus hepatocytes; parameters: method as in PMID 24366744; settings: P. cynomolgi in vitro liver-stage assay; read-out: IC50 against developing EEFs; cited from earlier work
[5] = group PQ-RC, 1.8 mg/kg, % of weight at d0

In the case of `COc1cc(NC(C)CCCN)c2ncccc2c1` (stereo not drawn) [PQ, primaquine], the “Day p.i. to first relapse” value ([1]; 1.8 mg/kg oral for 5 days from day 11 p.i. plus CQ, individual monkeys, ND = not detected up to day 100 p.i., 1.8 mg/kg) is reported as 47 day p.i. and 68 day p.i, the animals radically cured ([1]; 1.8 mg/kg oral for 5 days, monitored up to 100 days p.i., 1.8 mg/kg) is reported as “two out of four; also recorded: two were completely cured” and the “Day p.i. to second relapse” value ([1]; 1.8 mg/kg oral for 5 days, individual monkeys, ND = not detected up to day 100 p.i.) is reported as 100 day p.i. The “day p.i. to first relapse, mean ± SD of the relapsing animals” value ([1]; 1.8 mg/kg oral for 5 days, only two of the four animals relapsed, delay P = 0.000237) was 57.5 ± 14.8 day p.i, the “Day p.i. to primary parasitemia” value ([1]; individual monkeys, baseline, before dosing started) was 9 day p.i. and 10 day p.i. and 11 day p.i and the “Weight change d1” value [2, 5] was -0.8%. The “Weight change d2” value [2, 5] was -1.2%, the “Weight change d3” value [2, 5] was -2.6% and the “Weight change d4” value [2, 5] was -2.9%. For the same molecule, the mean weight loss ([2]; primaquine treatment, 1.8 mg/kg for 5 days, control 2.7%) was 2.9%, the IC50 [3] was 840 nM and the IC50 [4] was 370 nM.
